Experimental data taken from patent publication US8975398B2, “NAMPT inhibitors” (AbbVie Inc., priority 2012, dated 2015).
pIC50: −log10 of the molar value.

Assays:
[1] = molecular target: NAMPT (human, recombinant, C-terminally His-tagged) (Homo sapiens, UniProt P43490); assay: Time-Resolved Fluorescence Resonance Energy Transfer (TR-FRET) Binding Assay of NAMPT; conditions: 6.8 nM NAMPT, 200 nM probe, equilibrated 3 hours, absence of substrates
Procedure, shortened: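 Probe displacement measured by TR-FRET (Ex 337 nm; 520/495 nm ratio) after 3 h room-temperature equilibration of compound with 6.8 nM His-tagged human NAMPT, 1 nM Tb-anti-His antibody and 200 nM Oregon Green 488 nicotinamide-site probe, pH 7.5 HEPES buffer, 2% DMSO. Control-normalized data fit four-parameter logistic for IC50.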

NAMPT = NAMPT (Homo sapiens, UniProt P43490); assay: Time-Resolved Fluorescence Resonance Energy Transfer (TR-FRET) Binding Assay of NAMPT with PRPP; conditions: 2 nM NAMPT, 2 nM probe, 200 uM PRPP and 2.5 mM ATP, equilibrated 16 hours
Procedure, shortened: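 Binding measured by TR-FRET after a 16-hour equilibration meant to permit enzymatic compound modification. Substrates present at 200 uM PRPP and 2.5 mM ATP, with 2 nM enzyme, 2 nM probe, 1 nM Tb-anti-His antibody and 2% DMSO final.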

NAMPT, sequence (P43490 whole entry): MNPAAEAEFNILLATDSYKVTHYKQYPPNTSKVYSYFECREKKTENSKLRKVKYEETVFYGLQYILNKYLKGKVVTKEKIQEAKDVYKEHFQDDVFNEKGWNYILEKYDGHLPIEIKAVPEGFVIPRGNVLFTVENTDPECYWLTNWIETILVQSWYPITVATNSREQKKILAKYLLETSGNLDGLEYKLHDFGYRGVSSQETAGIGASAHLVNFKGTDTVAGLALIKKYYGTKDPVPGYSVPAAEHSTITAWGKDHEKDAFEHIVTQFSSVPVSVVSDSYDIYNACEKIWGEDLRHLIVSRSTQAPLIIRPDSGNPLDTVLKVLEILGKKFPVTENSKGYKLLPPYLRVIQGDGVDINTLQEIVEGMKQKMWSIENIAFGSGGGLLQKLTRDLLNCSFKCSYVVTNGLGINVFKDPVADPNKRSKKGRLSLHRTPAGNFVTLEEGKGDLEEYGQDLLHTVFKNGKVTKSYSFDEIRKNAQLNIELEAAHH
NAMPT (human, recombinant, C-terminally His-tagged), sequence (P43490 whole entry): as above

SMILES	pIC50 [1]	pIC50 (NAMPT)
O=C(Nc1ccc(OC2CCN(CC3CCOC3)CC2)cc1)C1CN(c2cccnc2)C1 (stereo not drawn) [Example 83, 1-(pyridin-3-yl)-N-(4-{[1-(tetrahydrofuran-3-ylmethyl)piperidin-4-yl]oxy}phenyl)azetidine-3-carboxamide]	5.92	9.30
CCCC(=O)N1CCC(Oc2ccc(NC(=O)C3CN(c4cccnc4)C3)cc2)CC1 [Example 43, N-{4-[(1-butanoylpiperidin-4-yl)oxy]phenyl}-1-(pyridin-3-yl)azetidine-3-carboxamide]	7.06	9.10
CC(=O)N[C@@H](CC(C)C)C(=O)N1CCC(Oc2ccc(NC(=O)C3CN(c4cccnc4)C3)cc2)CC1 [Example 47, N-(4-{[1-(N-acetyl-L-leucyl)piperidin-4-yl]oxy}phenyl)-1-(pyridin-3-yl)azetidine-3-carboxamide]	7.09	8.75
CN(C)CCC(=O)N1CCC(Oc2ccc(NC(=O)C3CN(c4cccnc4)C3)cc2)CC1 [Example 67, N-(4-{[1-(N,N-dimethyl-beta-alanyl)piperidin-4-yl]oxy}phenyl)-1-(pyridin-3-yl)azetidine-3-carboxamide]	6.34	9.30
O=C(Nc1ccc(C2CCN(C(=O)CC(F)(F)F)CC2)cc1)C1CN(c2cccnc2)C1 [Example 122, 1-(pyridin-3-yl)-N-{4-[1-(3,3,3-trifluoropropanoyl)piperidin-4-yl]phenyl}azetidine-3-carboxamide]	8.10	9.77
Cn1cccc1C(=O)N1CCC(Oc2ccc(NC(=O)C3CN(c4cccnc4)C3)cc2)CC1 [Example 64, N-[4-({1-[(1-methyl-1H-pyrrol-2-yl)carbonyl]piperidin-4-yl}oxy)phenyl]-1-(pyridin-3-yl)azetidine-3-carboxamide]	7.26	9.03
CCC(C)(C)CN1CCC(c2ccc(NC(=O)C3CN(c4cccnc4)C3)cc2)CC1 [Example 89, N-{4-[1-(2,2-dimethylbutyl)piperidin-4-yl]phenyl}-1-(pyridin-3-yl)azetidine-3-carboxamide]	5.70	9.19
Cn1cccc1C(=O)N1CCC(c2ccc(NC(=O)C3CN(c4cccnc4)C3)cc2)CC1 [Example 128, N-(4-{1-[(1-methyl-1H-pyrrol-2-yl)carbonyl]piperidin-4-yl}phenyl)-1-(pyridin-3-yl)azetidine-3-carboxamide]	8.08	9.21
CC1CC1C(=O)N1CCC(c2ccc(NC(=O)C3CN(c4cccnc4)C3)cc2)CC1 (stereo not drawn) [Example 102, N-(4-{1-[(2-methylcyclopropyl)carbonyl]piperidin-4-yl}phenyl)-1-(pyridin-3-yl)azetidine-3-carboxamide]	8.05	9.68
O=C(Nc1ccc(C2CCN(C(=O)c3ccc(O)cc3)CC2)cc1)C1CN(c2cccnn2)C1 [Example 344, N-{4-[1-(4-hydroxybenzoyl)piperidin-4-yl]phenyl}-1-(pyridazin-3-yl)azetidine-3-carboxamide]	7.42	9.24
Cc1ncccc1N1CC(C(=O)Nc2ccc(C3CCN(C(=O)CN4CCN(C)CC4)CC3)cc2)C1 [Example 173, N-(4-{1-[(4-methylpiperazin-1-yl)acetyl]piperidin-4-yl}phenyl)-1-(2-methylpyridin-3-yl)azetidine-3-carboxamide]	6.28	6.81
Cc1ncccc1N1CC(C(=O)Nc2ccc(C3CCN(C(=O)CCN4CCOCC4)CC3)cc2)C1 [Example 184, 1-(2-methylpyridin-3-yl)-N-(4-{1-[3-(morpholin-4-yl)propanoyl]piperidin-4-yl}phenyl)azetidine-3-carboxamide]	6.20	7.10
Cc1ncccc1N1CC(C(=O)Nc2ccc(C3CCN(C(=O)CCC(C)C)CC3)cc2)C1 [Example 176, N-{4-[1-(4-methylpentanoyl)piperidin-4-yl]phenyl}-1-(2-methylpyridin-3-yl)azetidine-3-carboxamide]	6.78	6.95
CC[C@H](C)C(=O)N1CCC(Oc2ccc(NC(=O)C3CN(c4cccnn4)C3)cc2)CC1 [Example 212, N-[4-({1-[(2S)-2-methylbutanoyl]piperidin-4-yl}oxy)phenyl]-1-(pyridazin-3-yl)azetidine-3-carboxamide]	7.15	9.10
Cc1ncccc1N1CC(C(=O)Nc2ccc(OC3CCN(C(=O)CC4CCOCC4)CC3)cc2)C1 [Example 4, 1-(2-methylpyridin-3-yl)-N-(4-{[1-(tetrahydro-2H-pyran-4-ylacetyl)piperidin-4-yl]oxy}phenyl)azetidine-3-carboxamide]	6.37	7.62
O=C(Nc1ccc(C2CCN(C(=O)Cc3cccc(F)c3)CC2)cc1)C1CN(c2cccnn2)C1 [Example 367, N-(4-{1-[(3-fluorophenyl)acetyl]piperidin-4-yl}phenyl)-1-(pyridazin-3-yl)azetidine-3-carboxamide]	7.47	9.13
Cc1cccc(C(=O)N2CCC(c3ccc(NC(=O)C4CN(c5cccnn5)C4)cc3)CC2)c1C [Example 357, N-{4-[1-(2,3-dimethylbenzoyl)piperidin-4-yl]phenyl}-1-(pyridazin-3-yl)azetidine-3-carboxamide]	7.75	8.94
CC(C)C(=O)N1CCC(c2ccc(NC(=O)C3CN(c4ccnnc4)C3)cc2)CC1 [Example 528, N-{4-[1-(2-methylpropanoyl)piperidin-4-yl]phenyl}-1-(pyridazin-4-yl)azetidine-3-carboxamide]	7.58	7.76
O=C(Nc1ccc(OC2CCN(C(=O)Cc3cccc(C(F)(F)F)c3)CC2)cc1)C1CN(c2ccnnc2)C1 [Example 305, 1-(pyridazin-4-yl)-N-{4-[(1-{[3-(trifluoromethyl)phenyl]acetyl}piperidin-4-yl)oxy]phenyl}azetidine-3-carboxamide]	6.96	7.46
O=C(Nc1ccc(OC2CN(C(=O)c3ccoc3)C2)cc1)C1CN(c2ccnnc2)C1 [Example 209, N-(4-{[1-(furan-3-ylcarbonyl)azetidin-3-yl]oxy}phenyl)-1-(pyridazin-4-yl)azetidine-3-carboxamide]	7.21	7.54
CC[C@H](C)C(=O)N1CCC(c2ccc(NC(=O)C3CN(c4ccnnc4)C3)cc2)CC1 [Example 143, N-(4-{1-[(2S)-2-methylbutanoyl]piperidin-4-yl}phenyl)-1-(pyridazin-4-yl)azetidine-3-carboxamide]	7.77	7.51
COCC(=O)N1CCC(c2ccc(NC(=O)C3CN(c4cccnc4C)C3)cc2)CC1 [Example 195, N-{4-[1-(methoxyacetyl)piperidin-4-yl]phenyl}-1-(2-methylpyridin-3-yl)azetidine-3-carboxamide]	6.52	7.03
Cc1ncccc1N1CC(C(=O)Nc2ccc(C3CCN(C(=O)[C@@H]4CCC(=O)N4)CC3)cc2)C1 [Example 174, 1-(2-methylpyridin-3-yl)-N-{4-[1-(5-oxo-L-prolyl)piperidin-4-yl]phenyl}azetidine-3-carboxamide]	5.68	6.80
CC(C)(O)C(=O)N1CCC(Oc2ccc(NC(=O)C3CN(c4cccnc4)C3)cc2)CC1 [Example 31, N-(4-{[1-(2-hydroxy-2-methylpropanoyl)piperidin-4-yl]oxy}phenyl)-1-(pyridin-3-yl)azetidine-3-carboxamide]	6.87	9.16
